Results: US6204220A, “Substituted 2-oxo-3-alkynoic acids and methods of use thereof” (Rutgers, The State University of New Jersey, priority 1999, dated 2001)
“And” between values parts separate entries of the source, which are not always exact repeats. Identical values can stand only once. Like-named read-outs stand apart in the source and are kept apart here.

What was measured:
[1] = target: T1, Pyruvate oxidase from Lactobacillus plantarum (Lactiplantibacillus plantarum, UniProt P37063); assay: Inactivation of pyruvate oxidase (POX); format: biochemical; settings: for kinact/KI: read-out: kc/Ki,c (converted)
T1 construct: purchased Boehringer Mannheim (a gift, not bought)
T1 sequence (P37063 1-603): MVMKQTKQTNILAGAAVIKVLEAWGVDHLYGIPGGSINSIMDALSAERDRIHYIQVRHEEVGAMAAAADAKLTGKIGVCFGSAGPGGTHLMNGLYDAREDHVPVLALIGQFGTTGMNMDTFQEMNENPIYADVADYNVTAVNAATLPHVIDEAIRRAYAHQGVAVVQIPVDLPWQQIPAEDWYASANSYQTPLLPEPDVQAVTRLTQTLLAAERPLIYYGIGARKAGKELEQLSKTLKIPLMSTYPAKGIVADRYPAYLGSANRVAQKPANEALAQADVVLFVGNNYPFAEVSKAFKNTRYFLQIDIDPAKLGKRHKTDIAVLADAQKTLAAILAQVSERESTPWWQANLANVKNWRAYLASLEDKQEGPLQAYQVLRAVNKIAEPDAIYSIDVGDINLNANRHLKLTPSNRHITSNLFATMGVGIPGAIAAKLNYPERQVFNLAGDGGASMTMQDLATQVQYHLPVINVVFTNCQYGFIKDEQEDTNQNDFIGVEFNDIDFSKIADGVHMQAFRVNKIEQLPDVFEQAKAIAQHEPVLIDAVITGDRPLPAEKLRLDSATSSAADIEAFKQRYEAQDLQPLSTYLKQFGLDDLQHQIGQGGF
Protocol: Pyruvate oxidase from Lactobacillus plantarum was a gift from Boehringer Mannheim and was assayed according to the manufacturer's instructions at 25° C. by measuring the rate of 4-quinonimine production from H2 O2, 3,5-dichlorophenolsulfonic acid and 4-aminoantipyrine in the presence of horseradish peroxidase, at 546 nm, using a Cobas-Bio (Roche Diagnostics, Somerville, N.J.) automated centrifugal analyzer. The assay reaction mixture (total vol. 0.25 mL) contained: 40 mM sodium pyruvate; 50 mM potassium phosphate buffer, pH 6.5 with 10% (v/v) glycerol; 6.8 mM 3,5-dichlorophenolsulfonic acid; 0.03% of 4-aminoantipyrine; and 5u/mL of horseradish peroxidase. The reaction was initiated by adding POX.

E1 [2] = target: T2, E1 (Escherichia coli, UniProt P0AFG8); assay: Quantification of sulfhydryl groups in E1 (DTNB titration); set-up: species or system E. coli
T2 construct: made in house; host or cells: resolved from PDHc expressed in E. coli JRG1342
Protocol: Quantification of the fraction of sulfhydryl groups in E1 modified by 2-oxo-3-butynoic acid. The concentration of titratable sulfhydryl groups was determined by treating samples (1 mL) containing E1 (3.02×10^-6 M) in 0.05 M KH2 PO4 buffer, pH 8.0 and 8 M urea, with small aliquots of 5,5'-dithiobis-(2-nitrobenzoic acid) from a 1 mM stock solution, and comparing the absorbencies at 412 nm with those obtained with freshly prepared cysteine solutions in the range 10×10^-6 -50×10^-6 M. Protein concentrations were determined by the Bio-Rad method with bovine serum albumin as standard.

E1 [3] = target: T2, E1; assay: Fluorescence measurements on binding to E1; set-up: species or system E. coli
Protocol: Fluorescence measurements on the binding of 2-oxo-3-butynoic acid to E1. The fluorescence spectrum of apo-E1 (enzyme having no activity in the absence of ThDP) was measured using the SLM8100 spectrofluorimeter at 25° C. The excitation wavelength was 295 nm and the emission spectrum, presumably due to tryptophan, was recorded in the 300-450 nm range in a 1 mL or 3 mL quartz cuvette. The concentration of apo-E1 was 0.05-0.175 mg/mL in 20 mM KH2 PO4 buffer, pH 7.5. The excitation and emission monochromator slit widths were 4 nm. The V.3.0 software and KaleidaGraph computer program were used for data processing. The emission maximum for tryptophan (λ=335 nm) was determined by fitting the points from the peak using the KaleidaGraph computer program.

[4] = Chemical stability of inhibitor on incubation in buffer before inactivation test; format: physicochemical; settings: 1 mM, room temperature, 20 mM KH2PO4 pH 7.5, 1 mM ThDP, 5 mM MgCl2, up to 28 min
Protocol: Kinetics of inactivation of 1-lip and 3-lip PDH complexes and resolved E1 in the presence of 2-oxo-3-alkynoic acids. Three analogs of pyruvate were tested as potential inhibitors of the PDHc and resolved E1: 2-oxo-3-butynoic acid; 2-oxo-3-pentynoic acid; and 2-oxo-3-heptynoic acid. Incubation in the presence of saturating ThDP (1 mM) and MgCl2 (5 mM) with any of the three compounds led to the loss of overall activity in a time- and concentration-dependent fashion. The plots of remaining activity versus time were biphasic: a rapid phase of inactivation was followed either by a slow phase at high concentrations of inhibitor or a plateau at low concentrations of inhibitor, as shown for 1-lip PDHc and resolved E1 with 2-oxo-3-butynoic acid in FIGS. 1A and 1B. The biphasic kinetics may be due to chemical instability of the inhibitors, especially 2-oxo-3-butynoic acid. […] When a fresh portion of 2-oxo-3-butynoicacid was added to PDHc whose activity had plateaued at about 30%, the activity rapidly declined to a new plateau at 6-8% of the original activity. In contrast, the PDHc activity continued to decline at a low rate when fresh 1-lip PDHc was added to the sample that had already declined to 30% (data not shown).

resolved E1 = target: T3, resolved E1 (Escherichia coli, UniProt P0AFG8); assay: Non-oxidative formation of acetoin and acetolactate by resolved E1; format: biochemical, E. coli
T3 construct: made in house; host or cells: resolved from PDHc expressed in E. coli JRG1342
Protocol: Assay for the non-oxidative formation of acetoin and acetolactate by resolved E1. The reaction mixture contained in 0.8 mL of 50 mM KH2 PO4 buffer, pH 7.5: ThDP (1 mM); MgCl2 (2 mM); pyruvate (2 mM) and resolved E1 (0.04-0.1 mg). After 2 h at 37° C. the reaction was stopped by the addition of either 0.1 mL of 2.5 N NaOH (acetoin assay), or 0.02 mL of 6 N HCl (acetolactate assay), according to Kuwana et al. (1968). Tubes for acetolactate measurement were incubated for an additional 2 h at 37° C. to decarboxylate the acetolactate to acetoin. Acetoin was determined according to Westerfeld (1945). The activity is defined as nmoles of acetoin formed per min per mg protein.

[5] = E1 treated with 3.7 mM inhibitor, At = 11.5%
[6] = E1 with 11.5% overall activity remaining

T2 sequence (P0AFG8 2-887): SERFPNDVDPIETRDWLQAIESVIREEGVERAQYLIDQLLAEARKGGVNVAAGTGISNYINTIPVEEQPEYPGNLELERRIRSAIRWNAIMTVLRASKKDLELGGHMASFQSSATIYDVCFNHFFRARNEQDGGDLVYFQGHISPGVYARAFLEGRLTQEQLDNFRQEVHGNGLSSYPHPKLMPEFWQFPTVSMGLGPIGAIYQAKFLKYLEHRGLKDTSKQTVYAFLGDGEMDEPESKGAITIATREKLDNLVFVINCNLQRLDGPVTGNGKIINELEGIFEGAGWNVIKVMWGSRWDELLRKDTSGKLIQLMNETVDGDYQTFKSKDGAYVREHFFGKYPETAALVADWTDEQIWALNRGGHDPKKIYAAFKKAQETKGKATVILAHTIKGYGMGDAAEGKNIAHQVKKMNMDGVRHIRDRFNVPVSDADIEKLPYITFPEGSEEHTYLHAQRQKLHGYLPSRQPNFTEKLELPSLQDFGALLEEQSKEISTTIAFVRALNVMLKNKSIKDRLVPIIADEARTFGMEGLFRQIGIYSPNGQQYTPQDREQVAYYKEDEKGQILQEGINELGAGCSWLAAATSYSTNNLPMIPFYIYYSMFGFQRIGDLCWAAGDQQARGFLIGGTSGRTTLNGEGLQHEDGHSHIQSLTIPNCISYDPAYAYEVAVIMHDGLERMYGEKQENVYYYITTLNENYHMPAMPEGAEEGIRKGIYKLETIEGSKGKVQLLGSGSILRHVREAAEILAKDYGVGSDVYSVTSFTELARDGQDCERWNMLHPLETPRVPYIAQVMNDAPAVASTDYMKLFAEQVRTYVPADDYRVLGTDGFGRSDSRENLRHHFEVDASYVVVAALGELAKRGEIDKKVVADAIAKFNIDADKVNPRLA
T3 sequence (P0AFG8 2-887): as above

SMILES	inhibition / inactivation of POX (in words) [1]	saturation by inhibitor ([1]; POX)	kinact/KI ([1]; POX, from linear portion at high inhibitor concentrations (d))	kinact/KI ([1]; POX, from linear portion at low inhibitor concentrations (c))	SH-groups remaining per monomer (E1 [2]; E1 reacted to residual activity of 10%, G-25, DTNB titration, 8 M urea)	SH-groups modified per monomer / subunit (E1 [2]; difference to untreated E1)	decrease of fluorescence intensity (E1 [3]; 0.033 mM inhibitor)	decrease of fluorescence intensity (E1 [3]; 0.1 mM inhibitor)	decrease of fluorescence intensity of E1 at 335 nm (E1 [3]; 0.11 mM, E1 0.173 mg/ml, ThDP 0.2 mM, MgCl2 1 mM)	first-order rate constant of fluorescence intensity decrease, slow phase (E1 [3]; absence of added ThDP, 0.11 mM)	Ki ([1]; POX, read-out: Ki,c)	kinact/KI ([1]; POX)	kinact ([1]; POX, read-out: ki (converted))	effect of incubating the inhibitor in buffer on its ability to inactivate 1-lip PDHc [4]	Acetoin production (resolved E1; [5])	Acetolactate production (resolved E1; [5])	Acetoin production relative to uninhibited E1 (resolved E1; [6])	Acetolactate production relative to uninhibited E1 (resolved E1; [6])
CCCC#CC(=O)C(=O)O [2-oxo-3-heptynoic acid, 2-Oxo-3-heptynoic acid]	inhibit	no	0.32 M⁻¹ s⁻¹	0.0615 M⁻¹ s⁻¹														
C#CC(=O)C(=O)O [2-oxo-3-butynoic acid, 2-Oxo-3-butynoic acid]	irreversibly inactivates	yes			3.83±0.18 SH-groups per monomer	1.3 SH-groups per monomer and 1.30±0.35 SH-groups per monomer	about 35%	66%	about 66%	0.042 min⁻¹	951 µM	4.7 M⁻¹ s⁻¹	0.00447 s⁻¹	no significant effect	1.52 ± 0.08 nmol/min/mg protein	0.51 ± 0.083 nmol/min/mg protein	30%	36%
